PMC7318222, “A Family of Water‐Immiscible, Dipolar Aprotic, Diamide Solvents from Succinic Acid” (Chemsuschem, 2020)

Assays:
TRβ = molecular target: T1, TRβ (Homo sapiens, UniProt P10828); experiment: TRβ-anti CALUX reporter gene assay (antagonistic mode); assay type: cell-based; parameters: key: –: no effect observed up to the highest test concentration; conditions: PC20, 24 h exposure
T1 construct: expression construct for the full-length human receptor under investigation; expressed in transfected cells; host or cells: human U2-OS cells (ATCC HTB-96), stably transfected
T1 sequence (P10828 1-461): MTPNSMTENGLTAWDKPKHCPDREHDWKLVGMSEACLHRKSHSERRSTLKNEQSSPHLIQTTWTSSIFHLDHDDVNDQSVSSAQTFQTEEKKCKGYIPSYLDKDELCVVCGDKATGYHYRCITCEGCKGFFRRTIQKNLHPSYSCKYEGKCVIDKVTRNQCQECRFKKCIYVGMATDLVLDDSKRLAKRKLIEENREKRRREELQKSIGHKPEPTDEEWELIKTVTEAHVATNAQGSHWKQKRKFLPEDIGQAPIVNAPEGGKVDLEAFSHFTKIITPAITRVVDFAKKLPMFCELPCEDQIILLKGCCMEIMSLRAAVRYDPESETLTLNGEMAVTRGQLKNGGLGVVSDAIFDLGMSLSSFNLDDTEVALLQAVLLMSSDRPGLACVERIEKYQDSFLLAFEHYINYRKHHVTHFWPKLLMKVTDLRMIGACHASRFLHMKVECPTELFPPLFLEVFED
Text: (§1) 2-methylimidazole 99.0%, zinc(II) nitrate hexahydrate ≥99.0%, para-cymene 99.0%, 1,4-dioxane 99.8% (anhydrous), 4-nitroaniline ≥99.0%, 1-octanol ≥99.0%, diglyme ≥99.0%, DMSO-d6 (99.8% D) and chloroform-d (99.8% D) were purchased from Sigma-Aldrich. Toluene ≥99.0%, hexane ≥99.5%, DCM ≥99.5%, chloroform ≥99.5%, DMSO ≥99.0% were purchased from VWR. N,N-diethyl-4-nitroaniline ≥98.0% was purchased from Alfa Aeser. Cyrene was supplied by Circa group. N-butylpyrrolidinone was supplied by Eastman chemicals. N,N-dimethylformamide 99.9% and N,N-dimethylacetamide 99.9% were purchased from Fischer. The flakes of Ultrason® E3020 P Polyarylethersulfone of 55,000 Da were obtained from INGE.BASF, Germany. The CALUX cell lines have been described previously.[1] They are based on human U2-OS cells (ATCC, HTB-96) stably transfected with an expression construct for the full-length human receptor under investigation, and a reporter construct consisting of multimerized responsive elements for the cognate receptor coupled to a minimal promoter element (TATA) and a luciferase gene. Cells were maintained as described previously,[2] using cell culture media and supplements from Fisher Scientific as described in the experimental procedures section. […]
(§2) In vitro reporter gene assays
(§3) The automated CALUX assays were carried out similarly as described earlier,[12] with some adaptations. In brief, the assay was performed in CO2 independent medium (Fisher Scientific, […]
(§4) supplement (Fisher Scientific, 11574466), 10 U/mL penicillin and 10 µg/mL streptomycin. A cell suspension in assay medium was made of 1 × 10^5cells/mL, and white 384-wells plates were seeded with 30 µl cell suspension/well. After 24 h, exposure medium was prepared. A dilution series in 0.5log unit increments of each test compound (in DMSO) was added to a 96-wells plate containing assay medium (2% v/v). Of this exposure mixture, 30 µl was added to the assay plates containing the CALUX cells, resulting in a final DMSO concentration of 1%. Additionally, DMSO blanks and a full dose response curve of the relevant reference compound were included on each plate. All samples were tested in triplicate. The preparation of the compound dilution series as well as the exposure of the cells were performed on a Hamilton StarLET liquid handling robot coupled to a Cytomat incubator.
(§5) Directly after exposure, plates were sealed with non-breathing plate seals (Plate sealer, easy seal transparent; Greiner-Bio-One, 676001). After 24 h the exposure medium was removed using an EL406 washer-dispenser (BioTek) and 10 µl/well triton lysisbuffer was added by the EL406.
(§6) Subsequently, the luciferase signal was measured in a luminometer (InfinitePro coupled to a Connect Stacker, both TECAN). In order to be able to detect receptor antagonism, several assays were also performed in antagonistic mode. […]
(§7) The luminometer data was analysed as follows; the average of the triplicate wells was determined, and the average blank (DMSO) value was subtracted. […] For antagonist- and cytotoxicity experiments, PC20 values were determined instead, which was defined as the concentration where the test compound causes a 20% decrease in the basal signal, which was […]
(§8) curve, the signal induction above background (DMSO) was determined, and the concentration where the compound elicited a 1.5-fold increase above background was used as LEC.

AhR = molecular target: T2, AhR (Homo sapiens, UniProt P35869); experiment: AhR CALUX reporter gene assay; assay type: cell-based; parameters: key: –: no effect observed up to the highest test concentration; conditions: PC10, 24 h exposure
T2 construct: expression construct for the full-length human receptor under investigation; expressed in transfected cells; host or cells: human U2-OS cells (ATCC HTB-96), stably transfected
T2 sequence (P35869 11-848): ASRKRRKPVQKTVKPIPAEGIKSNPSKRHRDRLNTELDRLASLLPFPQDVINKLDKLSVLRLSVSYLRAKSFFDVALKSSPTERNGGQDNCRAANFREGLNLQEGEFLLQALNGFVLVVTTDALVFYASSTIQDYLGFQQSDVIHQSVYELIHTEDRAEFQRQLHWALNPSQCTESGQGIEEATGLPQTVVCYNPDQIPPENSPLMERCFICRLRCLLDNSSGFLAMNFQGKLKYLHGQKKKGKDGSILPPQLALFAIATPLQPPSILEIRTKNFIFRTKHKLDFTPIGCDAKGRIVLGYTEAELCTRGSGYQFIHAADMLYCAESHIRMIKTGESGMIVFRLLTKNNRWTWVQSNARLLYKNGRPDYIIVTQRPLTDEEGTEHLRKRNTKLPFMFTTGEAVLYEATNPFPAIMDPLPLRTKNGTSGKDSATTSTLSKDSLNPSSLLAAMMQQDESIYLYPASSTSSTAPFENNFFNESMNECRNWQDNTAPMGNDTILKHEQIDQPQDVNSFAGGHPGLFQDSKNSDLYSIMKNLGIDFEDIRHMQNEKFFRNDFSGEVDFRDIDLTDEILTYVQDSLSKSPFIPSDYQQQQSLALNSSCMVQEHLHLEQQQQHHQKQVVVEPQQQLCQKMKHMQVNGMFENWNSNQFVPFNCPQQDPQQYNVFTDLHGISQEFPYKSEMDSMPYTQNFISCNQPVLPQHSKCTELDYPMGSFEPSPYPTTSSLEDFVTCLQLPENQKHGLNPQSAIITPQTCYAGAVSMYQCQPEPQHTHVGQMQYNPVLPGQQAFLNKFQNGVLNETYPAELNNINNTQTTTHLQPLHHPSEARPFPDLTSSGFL
Text: as §1, §2, §3, §4, §5, §6, §7, §8

Row | Compound | LEC TRβ‐anti (TRβ) | LEC AhR (AhR)
1 | CCCCN(CCCC)C(=O)CCC(=O)N(CCCC)CCCC [TBSA, N,N,N′,N′‐tetrabutylsuccindiamide] | – | –
2 | CCCCN1CCCC1=O [NBP, N‐Butylpyrrolidinone, reference compound] | – | –
3 | CN1CCCC1=O [NMP, N‐methyl‐2‐pyrrolidone, reference compound] | – | −2.0 Log M
4 | CCCCN(CC)C(=O)CCC(=O)N(CC)CCCC [EBSA, N,N′‐diethyl‐N,N′‐dibutylsuccindiamide] | – | –
5 | CCCCN(C)C(=O)CCC(=O)N(C)CCCC [MBSA, N,N′‐dimethyl‐N,N′‐dibutylsuccindiamide] | – | –
